The values that follow come from patent publication EP4737445A1, “NOVEL SATURATED HETEROCYCLE-SUBSTITUTED HETEROARYL-CARBONOHYDRAZONOYL DICYANIDE COMPOUND AND USE THEREOF” (Korea Institute of Science and Technology, priority 2023, dated 2025).

The target in one data set is T1, Tau (Homo sapiens, UniProt P10636).
T1 construct: BiFC fluorescent-protein fragments (two complementary halves on two tau copies); expressed in transfected cells
Put plainly: Tau aggregation inhibition in Tau-BiFC cell model (Forskolin-induced). The format is cell-based. The procedure, abridged:
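Tau-BiFC cells were co-treated with compound (1, 3, 10 µM for screening; 0.03–30 µM for IC50) and 30 µM Forskolin for 48 h. BiFC fluorescence was normalised to the Forskolin-only window for aggregation; viability came from Hoechst-stained nuclei counts relative to Forskolin-only (100%). IC50 was derived by nonlinear regression.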

The target of a further data set is T2, TDP-43 protein (Homo sapiens, UniProt Q13148).
T2 construct: BiFC fluorescent-protein fragments (two complementary halves); expressed in transfected cells
T2 sequence (Q13148 whole entry, the tested form may be a part): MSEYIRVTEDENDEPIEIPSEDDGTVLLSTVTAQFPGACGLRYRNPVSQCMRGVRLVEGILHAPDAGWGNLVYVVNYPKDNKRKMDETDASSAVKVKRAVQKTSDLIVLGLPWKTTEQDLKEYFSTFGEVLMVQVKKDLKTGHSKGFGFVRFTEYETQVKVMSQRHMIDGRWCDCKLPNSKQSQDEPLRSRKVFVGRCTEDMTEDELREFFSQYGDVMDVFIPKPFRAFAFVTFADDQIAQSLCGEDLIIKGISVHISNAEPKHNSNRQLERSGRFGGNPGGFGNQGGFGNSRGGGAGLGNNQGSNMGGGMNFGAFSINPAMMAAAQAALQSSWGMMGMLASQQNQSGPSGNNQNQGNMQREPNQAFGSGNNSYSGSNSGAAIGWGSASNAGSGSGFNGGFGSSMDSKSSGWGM
Put plainly: TDP-43 aggregation inhibition in TDP-43-BiFC cell model (Forskolin-induced). It is filed as cell-based. The settings on record: for inhibition at 3 µM: read-out: TDP-43 protein aggregation inhibitory effect: Aggregation inhibitory effect (%) (@3 uM). The procedure, abridged:
(§1)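 Forskolin (30 µM) co-treated with compound (screen 3 and 10 µM; dose-response 0.003–10 µM) for 48 h. BiFC fluorescence normalised to Forskolin-only (100% aggregation) minus untreated; viability from Hoechst-stained nuclei count vs Forskolin-only. IC50 by nonlinear regression.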

The test system of the next data set is TDP-43 BiFC cells. Put plainly: Cell viability (stained nuclei count) in TDP-43-BiFC cells. As to conditions: Forskolin-only group = 100%. It is filed as cell-based. The procedure, abridged: as §1
The next data set deals with T3, CYP3A4 (Homo sapiens, UniProt P08684).
T3 construct: human liver microsomes (0.25 mg/mL); from tissue; host or cells: human liver microsomes
T3 sequence (P08684 whole entry): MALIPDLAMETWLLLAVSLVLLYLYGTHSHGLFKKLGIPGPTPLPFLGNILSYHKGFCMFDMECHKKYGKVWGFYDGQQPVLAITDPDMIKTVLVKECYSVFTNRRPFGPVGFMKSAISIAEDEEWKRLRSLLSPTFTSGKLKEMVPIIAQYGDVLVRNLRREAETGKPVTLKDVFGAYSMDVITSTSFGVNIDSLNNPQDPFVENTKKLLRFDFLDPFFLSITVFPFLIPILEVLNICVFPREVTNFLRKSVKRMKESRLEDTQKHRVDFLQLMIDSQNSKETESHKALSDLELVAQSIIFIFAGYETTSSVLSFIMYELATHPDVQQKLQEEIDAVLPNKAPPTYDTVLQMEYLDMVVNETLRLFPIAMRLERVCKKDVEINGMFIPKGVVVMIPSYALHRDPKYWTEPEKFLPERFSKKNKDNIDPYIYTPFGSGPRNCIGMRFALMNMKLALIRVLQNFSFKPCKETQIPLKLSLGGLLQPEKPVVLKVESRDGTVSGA
Put plainly: CYP isoenzyme activity inhibition in human liver microsomes, CYP3A4. It is filed as in vitro ADME. As to conditions: 10 µM compound; human liver microsomes 0.25 mg/mL; relative to control without compound. As to the method: The CYP isoenzyme activity inhibitory effect by the compounds prepared according to Examples 1 to 46 was confirmed. Specifically, human liver microsomes (0.25 mg/mL), 0.1 M phosphate buffer solution (pH 7.4), a substrate drug cocktail of five drug metabolizing enzymes (Phenacetin 50 µM, Diclofenac 10 µM, S-mephenytoin 100 µM, Dextromethorphan 5 µM, and Midazolam 2.5 µM), and the compounds were added at concentrations of 0 or 10 µM, respectively, and pre-incubated at 37°C for 5 minutes, and then NADPH generation system solution was added and incubated at 37°C for an additional 15 minutes. Thereafter, an acetonitrile solution containing an internal standard (Terfenadine) was added to terminate the reaction, and after centrifugation for 5 minutes (14,000 rpm, 4°C), the supernatant was injected into an LC-MS/MS system to simultaneously analyze the metabolites of the substrate drugs, thereby evaluating the drug metabolizing enzyme inhibitory activity.
The metabolites of each CYP isoenzyme marker drug generated through the reaction were analyzed using a Shimadzu Nexera XR system and TSQ vantage (Thermo). A Kinetex C18 (2.1 × 100 mm, 2.6 µm, particle size; Phenomenex, USA) was used as the HPLC column, and (A) distilled water containing 0.1% formic acid and (B) acetonitrile containing 0.1% formic acid were used as mobile phases, and a gradient program as shown in Table 6 below was applied.
The generated metabolites were quantified using MRM (Multiple Reaction Monitoring) quantitative mode, and Xcalibur (version 1.6.1) was used for data analysis. To show the CYP isoenzyme activity inhibitory effect of the novel compounds prepared according to the Examples of the disclosure, the % activity of CYP isoenzymes relative to the control group without compound addition is shown in Table 6 below. Additionally, to confirm the difference in effect according to substituents, Comparative Compounds 1 and 5, which are two compounds that share a similar parent nucleus structure with Compounds 1 to 46 of the disclosure while Cy is substituted with aromatic heteroaryl instead of saturated heterocyclyl, were selected as comparative compounds and their activities are shown together.
A general note: Liver microsomes are a subcellular fraction often used to study metabolism.

The IC50 is the concentration that inhibits the measured activity by half.

Where two headings read alike, the source gives them in different places.

T1 sequence (P10636 1-441 isoform P10636-8): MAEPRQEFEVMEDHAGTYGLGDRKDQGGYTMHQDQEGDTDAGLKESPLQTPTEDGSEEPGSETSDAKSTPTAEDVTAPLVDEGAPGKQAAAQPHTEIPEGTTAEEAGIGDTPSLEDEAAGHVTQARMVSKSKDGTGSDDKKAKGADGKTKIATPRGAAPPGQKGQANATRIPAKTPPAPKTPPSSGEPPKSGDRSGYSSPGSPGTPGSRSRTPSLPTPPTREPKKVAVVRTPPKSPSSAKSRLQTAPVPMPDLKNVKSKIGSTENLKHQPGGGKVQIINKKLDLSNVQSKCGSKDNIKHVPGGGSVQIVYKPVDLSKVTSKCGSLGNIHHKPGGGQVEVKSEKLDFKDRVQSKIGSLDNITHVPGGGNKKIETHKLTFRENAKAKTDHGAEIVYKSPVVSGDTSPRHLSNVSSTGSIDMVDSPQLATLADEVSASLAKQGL

As to `CC1COCCN1c1nc2ccc(NN=C(C#N)C#N)cc2o1` (stereo not drawn) [Compound 16, (2-(3-methylmorpholino)benzo[d]oxazol-6-yl)carbonohydrazonoyl dicyanide], half-maximal inhibition against Tau (IC50) was put at 0.049 µM. Besides, on TDP-43 protein, the inhibition at 3 µM is 100%. The “Cell viability (%) (@ 3 uM)” value with TDP-43 BiFC cells turned out to be 97.8%. Besides, at CYP3A4, the “CYP3A4 (% activity)” value was 96.7 % activity.
As for `COC1CCN(c2nc3ccc(NN=C(C#N)C#N)cc3o2)CC1` [Compound 17, (2-(4-methoxypiperidin-1-yl)benzo[d]oxazol-6-yl)carbonohydrazonoyl dicyanide], on Tau, the midpoint of inhibition, the IC50, lay at 0.088 µM. Besides, on TDP-43 protein, the inhibition at 3 µM is 100%. Besides, in the data set on TDP-43 BiFC cells, the “Cell viability (%) (@ 3 uM)” value worked out at 96.9%. The “CYP3A4 (% activity)” value at CYP3A4 is given as 87.1 % activity.
Compound `CC1CN(c2nc3ccc(NN=C(C#N)C#N)cc3o2)CC(C)O1` (stereo not drawn) [Compound 18, (2-(2,6-dimethylmorpholino)benzo[d]oxazol-6-yl)carbonohydrazonoyl dicyanide] gave a concentration for half-maximal inhibition (IC50) on Tau of 0.128 µM. In addition, the inhibition at 3 µM at TDP-43 protein came to 98.6%. Also, in the data set on TDP-43 BiFC cells, the “Cell viability (%) (@ 3 uM)” value is on record as 102.1%. In addition, the “CYP3A4 (% activity)” value on CYP3A4 amounted to 94.6 % activity.
For `N#CC(C#N)=NNc1ccc2nc(N3C4CCC3COC4)oc2c1` [Compound 20, (2-(3-oxa-8-azabicyclo[3.2.1]octan-8-yl)benzo[d]oxazol-6-yl)carbonohydrazonoyl dicyanide], the IC50 at Tau came to 0.011 µM; against TDP-43 protein it was 0.14 µM. Besides, on TDP-43 protein, the inhibition at 3 µM was 91.7%. In the data set with TDP-43 BiFC cells, the “Cell viability (%) (@ 3 uM)” value is reported as 75.4%. Also, the “CYP3A4 (% activity)” value at CYP3A4 was determined as 55.4 % activity.
For the compound `N#CC(C#N)=NNc1ccc2nc(N3CC4CCC(C3)O4)sc2c1` [Compound 23, (2-(8-oxa-3-azabicyclo[3.2.1]octan-3-yl)benzo[d]thiazol-6-yl)carbonohydrazonoyl dicyanide], the IC50 at Tau came out at 0.048 µM. At TDP-43 protein, half-maximal inhibition (IC50) was put at 0.107 µM and the inhibition at 3 µM worked out at 99.2%. The “Cell viability (%) (@ 3 uM)” value with TDP-43 BiFC cells is listed as 81.1%. In addition, the “CYP3A4 (% activity)” value on CYP3A4 turned out to be 71.7 % activity.
As to `N#CC(C#N)=NNc1ccc2nc(N3CCNCC3)sc2c1` [Compound 24, (2-(piperazin-1-yl)benzo[d]thiazol-6-yl)carbonohydrazonoyl dicyanide], half-maximal inhibition at Tau (IC50) required 0.168 µM. In addition, on TDP-43 protein, the half-maximal inhibitory concentration (IC50) turned out to be 0.053 µM and the inhibition at 3 µM came out at 97.9%. Also, the “Cell viability (%) (@ 3 uM)” value with TDP-43 BiFC cells is given as 83.1%. Besides, the “CYP3A4 (% activity)” value at CYP3A4 stood at 74.7 % activity.
Turning to `N#CC(C#N)=NNc1ccc2nc(N3CCNCC3)oc2c1` [Compound 25, (2-(piperazin-1-yl)benzo[d]oxazol-6-yl)carbonohydrazonoyl dicyanide], the IC50 against Tau was found to be 0.036 µM. Also, on TDP-43 protein, the IC50 turned out to be 0.053 µM and the inhibition at 3 µM is 98.2%. In addition, the “Cell viability (%) (@ 3 uM)” value in the data set with TDP-43 BiFC cells was found to be 76.7%. Besides, the “CYP3A4 (% activity)” value on CYP3A4 was determined as 91.5 % activity.
For `N#CC(C#N)=NNc1ccc2nc(N3CC4CCC(C3)O4)oc2c1` [Compound 26, (2-(8-oxa-3-azabicyclo[3.2.1]octan-3-yl)benzo[d]oxazol-6-yl)carbonohydrazonoyl dicyanide], the IC50 against Tau was determined as 0.01 µM; against TDP-43 protein, 0.248 µM. In addition, on TDP-43 protein, the inhibition at 3 µM was found to be 94.8%. Besides, the “Cell viability (%) (@ 3 uM)” value with TDP-43 BiFC cells amounted to 76.1%. Besides, the “CYP3A4 (% activity)” value at CYP3A4 worked out at 81.3 % activity.
`CC(C)N1CCN(c2nc3ccc(NN=C(C#N)C#N)cc3s2)CC1` [Compound 27, (2-(4-isopropylpiperazin-1-yl)benzo[d]thiazol-6-yl)carbonohydrazonoyl dicyanide] had an IC50 against Tau of 0.044 µM. In addition, the inhibition at 3 µM on TDP-43 protein is 48.2%. Besides, the “Cell viability (%) (@ 3 uM)” value in the data set with TDP-43 BiFC cells is listed as 104.8%. Also, the “CYP3A4 (% activity)” value at CYP3A4 stood at 59.8 % activity.
In the case of `CC(C)N1CCN(c2nc3ccc(NN=C(C#N)C#N)cc3o2)CC1` [Compound 28, (2-(4-isopropylpiperazin-1-yl)benzo[d]oxazol-6-yl)carbonohydrazonoyl dicyanide], inhibition against Tau was half-maximal at 0.016 µM (IC50). In addition, the inhibition at 3 µM on TDP-43 protein amounted to 57.1%. Moreover, in the data set with TDP-43 BiFC cells, the “Cell viability (%) (@ 3 uM)” value is listed as 113.4%. Further, the “CYP3A4 (% activity)” value on CYP3A4 amounted to 87.8 % activity.
In the case of `CC(=O)N1CCN(c2nc3ccc(NN=C(C#N)C#N)cc3s2)CC1` [Compound 30, (2-(4-acetylpiperazin-1-yl)benzo[d]thiazol-6-yl)carbonohydrazonoyl dicyanide], on Tau, the IC50 came out at 0.06 µM. Also, on TDP-43 protein, the IC50 was 0.146 µM and the inhibition at 3 µM is 88%. Besides, in the data set with TDP-43 BiFC cells, the “Cell viability (%) (@ 3 uM)” value was found to be 83.1%. In addition, the “CYP3A4 (% activity)” value at CYP3A4 stood at 74.6 % activity.
Regarding `CC(=O)N1CCN(c2nc3ccc(NN=C(C#N)C#N)cc3o2)CC1` [Compound 31, (2-(4-acetylpiperazin-1-yl)benzo[d]oxazol-6-yl)carbonohydrazonoyl dicyanide], on Tau, the IC50 turned out to be 0.088 µM. The inhibition at 3 µM on TDP-43 protein was determined as 41.4%. Moreover, the “Cell viability (%) (@ 3 uM)” value with TDP-43 BiFC cells came out at 82.7%. In addition, the “CYP3A4 (% activity)” value at CYP3A4 amounted to 88.3 % activity.
For the compound `CCn1c(N2CCOCC2)nc2ccc(NN=C(C#N)C#N)cc21` [Compound 32, (1-ethyl-2-morpholino-1H-benzo[d]imidazol-6-yl)carbonohydrazonoyl dicyanide], the IC50 on Tau came to 0.012 µM; against TDP-43 protein, 0.099 µM. Besides, at TDP-43 protein, the inhibition at 3 µM worked out at 95.4%. Also, in the data set with TDP-43 BiFC cells, the “Cell viability (%) (@ 3 uM)” value was 59.7%. Besides, the “CYP3A4 (% activity)” value at CYP3A4 was determined as 73 % activity.
`CCn1c(N2CCOCC2)nc2cc(NN=C(C#N)C#N)ccc21` [Compound 33, (1-ethyl-2-morpholino-1H-benzo[d]imidazol-5-yl)carbonohydrazonoyl dicyanide] had a 50% inhibitory concentration (IC50) at Tau of 0.004 µM. Further, at TDP-43 protein, the midpoint of inhibition, the IC50, lay at 0.124 µM and the inhibition at 3 µM turned out to be 93.9%. In the data set with TDP-43 BiFC cells, the “Cell viability (%) (@ 3 uM)” value worked out at 55.0%. Moreover, the “CYP3A4 (% activity)” value at CYP3A4 was 75.4 % activity.
Turning to `Cn1c(N2C3CCC2COC3)nc2ccc(NN=C(C#N)C#N)cc21` [Compound 34, (2-(3-oxa-8-azabicyclo[3.2.1]octan-8-yl)-1-methyl-1H-benzo[d]imidazol-6-yl)carbonohydrazonoyl dicyanide], the IC50 against Tau turned out to be 0.012 µM; at TDP-43 protein, 0.01 µM. At TDP-43 protein, the inhibition at 3 µM stood at 82.4%. Besides, the “Cell viability (%) (@ 3 uM)” value with TDP-43 BiFC cells came to 59.5%. In addition, at CYP3A4, the “CYP3A4 (% activity)” value was found to be 84.3 % activity.
`Cn1c(N2C3CCC2COC3)nc2cc(NN=C(C#N)C#N)ccc21` [Compound 35, (2-(3-oxa-8-azabicyclo[3.2.1]octan-8-yl)-1-methyl-1H-benzo[d]imidazol-5-yl)carbonohydrazonoyl dicyanide] yielded a concentration for half-maximal inhibition (IC50) against Tau of 0.012 µM. Further, at TDP-43 protein, inhibition was half-maximal at 0.192 µM (IC50) and the inhibition at 3 µM is 62.9%. The “Cell viability (%) (@ 3 uM)” value with TDP-43 BiFC cells amounted to 67.4%. In addition, the “CYP3A4 (% activity)” value on CYP3A4 is recorded as 86.1 % activity.
Take `N#CC(C#N)=NNc1ccc2nc(NC(=O)N3CCOCC3)sc2c1` [Compound 38, (2-(morpholine-4-carboxamido)benzo[d]thiazol-6-yl)carbonohydrazonoyl dicyanide]: the IC50 on Tau (read-out: Tau aggregation inhibitory effect IC50, Tau-BiFC cell line, Forskolin 30 µM, 48 hours, 0.03-30 µM) amounted to 0.068 µM. The inhibition at 3 µM at TDP-43 protein is 49.6%. For the same compound, in the data set with TDP-43 BiFC cells, the “Cell viability (%) (@ 3 uM)” value is recorded as 111.9%. For the same compound, the “CYP3A4 (% activity)” value on CYP3A4 is 86.7 % activity.
